Measured values as given in ChEMBL document CHEMBL4339220, “Scaffold Morphing Approach To Expand the Toolbox of Broad-Spectrum Antivirals Blocking Dengue/Zika Replication” (ACS Med Chem Lett, 2019).

How the values were obtained:
dengue virus type 2 [1] = experiment: Antiviral activity against Dengue virus type 2 NGC infected in African green monkey Vero B cells assessed as reduction in virus yield; assay type: functional, organism-based, Thailand/NGS-C/1944
[2] = Selectivity index, ratio of CC50 for African green monkey Vero B cells to EC50 for Dengue virus type 2 NGC infected in African green monkey Vero B cells; assay type: toxicity; conditions: read-out: Ratio CC50/EC50
[3] = Cytotoxicity in African green monkey Vero B cells assessed as reduction in cell viability by MTS assay; assay type: cell-based; conditions: chlorocebus aethiops
Dengue virus = experiment: Antiviral activity against Dengue virus; assay type: functional, organism-based
[4] = Cytotoxicity in African green monkey Vero E6 cells assessed as reduction in cell viability by MTS assay; assay type: cell-based; conditions: chlorocebus sabaeus, Vero E6 cells (Vero C1008)
Zika virus [5] = experiment: Antiviral activity against Zika virus MR766 infected in African green monkey Vero E6 cells assessed as reduction in virus yield; assay type: functional, organism-based; conditions: MR766, Vero C1008
[6] = Selectivity index, ratio of CC50 for African green monkey Vero E6 cells to EC50 for Zika virus MR766 infected in African green monkey Vero E6 cells; assay type: toxicity, Vero C1008; conditions: read-out: Ratio CC50/EC50
Zika virus [7] = experiment: Antiviral activity against Zika virus; assay type: functional, organism-based
dengue virus type 2 [8] = experiment: Potency index, ratio of EC50 for RBV to EC50 for test compound for antiviral activity against Dengue virus type 2 NGC infected in African green monkey Vero B cells assessed as reduction in virus yield; assay type: functional, Thailand/NGS-C/1944
Zika virus [9] = experiment: Potency index, ratio of EC50 for 7DMA to EC50 for test compound for antiviral activity against Zika virus MR766 infected in African green monkey Vero E6 cells assessed as reduction in virus yield; assay type: functional, Vero C1008
[10] = Dengue virus, Thailand/NGS-C/1944, Vero B, read-out: EC50

| Structure (SMILES) | EC50 (dengue virus type 2 [1]; [10]) | selectivity ratio [2] | CC50 [3] | CC50 [4] | EC50 (Zika virus [5]) | other results |
| --- | --- | --- | --- | --- | --- | --- |
| OCCNc1nc(Nc2cccc(O)c2)c2nc[nH]c2n1 | 7.4 µM | > 24 | > 175 µM |  |  |  |
| Oc1cccc(Nc2nc(N3CCOCC3)nc3[nH]cnc23)c1 | 40.6 µM | 3 | 122 µM |  |  | EC50 (Dengue virus): 40.6 µM |
| CCCCCOCc1c(Nc2ccc(S(N)(=O)=O)cc2)nc(N2CCOCC2)nc1C(=O)NCc1ccccc1 | 1 µM | > 88 | > 87.9 µM | > 87.9 µM | > 87.9 µM |  |
| O=C1c2nc(N3CCOCC3)nc(Nc3cccc(O)c3)c2CN1CCc1ccccc1 | 70.7 µM |  | > 116 µM |  |  |  |
| Oc1cccc(Nc2nc(NCCOc3ccccc3)nc3[nH]cnc23)c1 | 10 µM | 6.9 | 69.4 µM | > 124 µM | 16.7 µM | selectivity ratio [6]: > 7.4; EC50 (Dengue virus): 10 µM; EC50 (Zika virus [7]): 16.7 µM |
| CCCCCOCc1c(Nc2cccc(O)c2)nc(N2CCOCC2)nc1C(=O)NCc1ccc(C(F)(F)F)cc1 | 10.9 µM | 3 | 32.8 µM | 48.2 µM | 13.9 µM | selectivity ratio [6]: 3.5 |
| NS(=O)(=O)c1ccc(Nc2nc(N3CCOCC3)nc3c2COC3=O)cc1 | > 128 µM |  | > 128 µM |  |  |  |
| NS(=O)(=O)c1ccc(Nc2nc(N3CCOCC3)nc3[nH]cnc23)cc1 |  |  | 373 µM |  |  | EC50 (dengue virus type 2 [1]): Not Active |
| CCCCCOCc1c(Nc2ccc(S(N)(=O)=O)cc2)nc(N2CCOCC2)nc1C(=O)NCCOc1ccccc1 | 1.82 µM | > 46 | > 83.5 µM | > 83.5 µM | 2.04 µM | Ratio EC50 (dengue virus type 2 [8]): 6; selectivity ratio [6]: > 41; Ratio EC50 (Zika virus [9]): 3 |
| O=C(NCCc1ccccc1)c1nc(N2CCOCC2)nc(Nc2cccc(O)c2)c1CO | 20.7 µM | 3.1 | 64.5 µM |  |  |  |
| NS(=O)(=O)c1ccc(Nc2nc(N3CCOCC3)nc3c2CN(Cc2ccccc2)C3=O)cc1 | 21.6 µM | > 4.8 | > 104 µM | > 104 µM | > 104 µM |  |
| COc1ccc(CNC(=O)c2nc(N3CCOCC3)nc(Nc3cccc(O)c3)c2CO)cc1 | > 107 µM |  | > 107 µM |  |  |  |
| NS(=O)(=O)c1ccc(Nc2nc(N3CCOCC3)nc(C(=O)NCc3ccccc3)c2CO)cc1 | > 100 µM |  | > 100 µM |  |  |  |
| NS(=O)(=O)c1ccc(Nc2nc(N3CCOCC3)nc3c2CN(CCOc2ccccc2)C3=O)cc1 | 12.2 µM | > 8 | > 97.9 µM | > 97.9 µM | > 97.9 µM |  |
| COc1ccc(CN2Cc3c(Nc4ccc(S(N)(=O)=O)cc4)nc(N4CCOCC4)nc3C2=O)cc1 | > 97.9 µM |  | > 97.9 µM |  |  |  |
| O=C(NCCOc1ccccc1)c1nc(N2CCOCC2)nc(Nc2cccc(O)c2)c1CO | 62.1 µM | 1.2 | 73.3 µM |  |  |  |
| O=C1c2nc(N3CCOCC3)nc(Nc3cccc(O)c3)c2CN1Cc1ccccc1 | 100 µM |  | > 120 µM |  |  |  |
| O=C1OCc2c(Nc3cccc(O)c3)nc(N3CCOCC3)nc21 | > 128 µM |  | > 128 µM |  |  |  |
| O=C1c2nc(N3CCOCC3)nc(Nc3cccc(O)c3)c2CN1CCOc1ccccc1 | 20.6 µM | > 4.9 | > 100 µM |  |  |  |
| NC(=O)c1ncn([C@@H]2O[C@H](CO)[C@@H](O)[C@H]2O)n1 [RIBAVIRIN] | 11.9 µM | > 34 | > 409 µM |  |  | EC50 (Dengue virus): 11.9 µM; EC50 (Zika virus [7]): 12 µM |
| COc1ccc(CN2Cc3c(Nc4cccc(O)c4)nc(N4CCOCC4)nc3C2=O)cc1 | > 112 µM |  | > 112 µM |  |  |  |
| C[C@@]1(O)[C@H](O)[C@@H](CO)O[C@H]1n1ccc2c(N)ncnc21 [BETA-2'-C-METHYL-7-DEAZA-ADENOSINE] |  |  |  | > 357 µM | 5.7 µM | selectivity ratio [6]: > 64; EC50 (Zika virus [7]): 9.6 µM |
| CCCCCOCc1c(Nc2ccc(S(N)(=O)=O)cc2)nc(N2CCOCC2)nc1C(=O)NCc1ccc(OC)cc1 | > 83.5 µM |  | > 83.5 µM |  |  |  |
| O=C(NCc1ccccc1)c1nc(N2CCOCC2)nc(Nc2cccc(O)c2)c1CO | > 115 µM |  | > 115 µM |  |  |  |
| CCCCCOCc1c(Nc2cccc(O)c2)nc(N2CCOCC2)nc1C(=O)NCc1ccccc1 | 20.7 µM | 1.9 | 39.4 µM | > 98.9 µM | 57.8 µM | selectivity ratio [6]: > 1.7 |
